From US8314127B2, “Piperidine derivatives” (Astrazeneca AB, priority 2005, dated 2012)

Experiments:
CCR3 [1] = biological target: T1, CCR3 (Homo sapiens, UniProt P51677); assay: Compound affinity at human recombinant CCR3 receptors, radioligand competition on CHO-K1 cell membranes; assay type: binding; design: expressed in transfected cells; host or cells: CHO-K1; settings: 2 nM [3H]-4-(2,4-dichloro-3-methylphenoxy)-1'-[4-(methylsulfonyl)benzoyl]-1,4'-bipiperidine, 2 h at 37° C., mean of minimum 2 experiments; for Ki: read-out: CCR3 pKi (converted)
T1 sequence (P51677 1-355): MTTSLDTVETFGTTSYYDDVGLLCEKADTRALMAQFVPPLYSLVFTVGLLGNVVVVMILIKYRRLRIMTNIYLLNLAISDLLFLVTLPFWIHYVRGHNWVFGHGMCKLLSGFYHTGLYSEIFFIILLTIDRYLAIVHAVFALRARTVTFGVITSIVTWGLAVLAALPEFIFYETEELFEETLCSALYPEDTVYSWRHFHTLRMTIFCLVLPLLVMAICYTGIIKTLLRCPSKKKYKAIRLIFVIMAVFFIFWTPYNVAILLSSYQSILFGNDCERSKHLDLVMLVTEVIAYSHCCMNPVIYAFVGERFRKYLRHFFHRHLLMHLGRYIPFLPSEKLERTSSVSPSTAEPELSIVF

CCR3 [2] = biological target: T1, CCR3; assay: Eotaxin-2-induced shape change in eosinophils in human blood in vitro; assay type: cell-based; design: Human blood, collected by venous puncture into 9 mL lithium-heparin tubes; endogenous in cells; host or cells: eosinophils in human whole blood; settings: eotaxin-2 E/[A] curve displacement, 4 min at 37° C., flow cytometry forward scatter, read-out: CCR3 pA2 (converted)
human H1 receptor = biological target: T2, human H1 receptor (Homo sapiens, UniProt P35367); assay: Histamine H1 receptor binding, competition displacement of [3H]-pyrilamine; settings: 1 nM [3H]-pyrilamine, membranes from recombinant CHO-K1 cells, 1 hour at room temperature; read-out: H1 pKi (converted)
T2 construct: purchased Euroscreen SA, Brussels, Belgium ES-390-M; host or cells: CHO-K1
T2 sequence (P35367 whole entry): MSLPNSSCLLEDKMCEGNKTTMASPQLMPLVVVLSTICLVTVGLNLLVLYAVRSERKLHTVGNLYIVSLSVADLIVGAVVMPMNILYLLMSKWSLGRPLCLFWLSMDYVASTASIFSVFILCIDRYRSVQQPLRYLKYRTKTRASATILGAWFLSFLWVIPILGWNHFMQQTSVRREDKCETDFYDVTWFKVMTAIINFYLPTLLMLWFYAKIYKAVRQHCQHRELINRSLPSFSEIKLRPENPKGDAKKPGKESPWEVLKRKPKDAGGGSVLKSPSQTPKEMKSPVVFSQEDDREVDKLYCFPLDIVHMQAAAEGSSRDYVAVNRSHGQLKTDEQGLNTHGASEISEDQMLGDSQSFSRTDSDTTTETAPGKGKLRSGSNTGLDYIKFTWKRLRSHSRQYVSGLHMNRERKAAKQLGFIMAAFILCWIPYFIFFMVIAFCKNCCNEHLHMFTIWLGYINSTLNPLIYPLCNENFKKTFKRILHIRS

Row | CCR3 pKi (CCR3 [1]) | SMILES | Ki (CCR3 [1]) [nM] | Kb (CCR3 [2]) [nM] | Ki (human H1 receptor) [nM]
1 | – | COc1ccccc1C[C@@H](C(=O)O)N1CCC(CN2CCC(Oc3ccc(Cl)c(Cl)c3C)CC2)CC1 [Example 2, (2S)-2-[4-[[4-(3,4-dichloro-2-methyl-phenoxy)-1-piperidyl]methyl]-1-piperidyl]-3-(2-methoxyphenyl)-propanoic acid] | 0.631 | 20 | –
2 | – | Cc1c(OC2CCN(CC3CCN([C@@H](Cc4ccc(C#N)cc4)C(=O)O)CC3)CC2)ccc(Cl)c1Cl [Example 3, (2S)-3-(4-cyanophenyl)-2-[4-[[4-(3,4-dichloro-2-methyl-phenoxy)-1-piperidyl]methyl]-1-piperidyl]-propanoic acid] | 0.501 | 20 | 31.6
3 | – | CCc1c(OC2CCN(CC3CCN([C@@H](Cc4ccccc4)C(=O)O)CC3)CC2)ccc(Cl)c1Cl [Example 13, (2S)-2-[4-[[4-(3,4-dichloro-2-ethyl-phenoxy)-1-piperidyl]methyl]-1-piperidyl]-3-phenylpropanoic acid] | 1.26 | 200 | 100
4 | – | CCc1c(OC2CCN(CC3CCN([C@@H](Cc4ccc(F)cc4)C(=O)O)CC3)CC2)ccc(Cl)c1Cl [Example 14, (2S)-2-[4-[[4-(3,4-dichloro-2-ethyl-phenoxy)-1-piperidyl]methyl]-1-piperidyl]-3-(4-fluorophenyl)-propanoic acid] | 0.501 | 200 | –
5 | 8.2 | Cc1c(OC2CCN(CC3CCN([C@@H](Cc4ccccc4)C(=O)O)CC3)CC2)ccc(C#N)c1Cl [Example 15, (22S)-2-(4-{[4-(3-chloro-4-cyano-2-methylphenoxy)-piperidin-1-yl]methyl}piperidin-1-yl)-3-phenylpropanoic acid] | – | – | –
